The values below come from publication PMC12264794, “Homoleptic complexes of titanium(IV) fused with O^N^O Schiff base derivatives: design, BSA–DNA interaction, molecular docking, DFT and cytotoxicity” (RSC Advances, 2025).

Each structure is given as a SMILES string.

One experiment concerns HeLa cells. The experiment can be described thus: Flow cytometry cell cycle analysis by PI staining. It counts as cell-based, human. As to conditions: 48 h, complexes at IC50, cis-platin 5 μM. As for the experimental part:
A flow cytometer was also used to do the apoptotic assessment. HeLa cells (5 × 10^5) were seeded onto 6-well plates using Dulbecco's Modified Eagle Medium paper (DMEM) with 10% FBS. The plates were incubated overnight at 37 °C with 95% air and 5% CO2. […] Following trypsinization, the cells were collected, cleaned with PBS, and fixed for 24 hours at 2–6 °C in ice-cold 70% ethanol. Centrifugation was used to remove the ethanol, and cold PBS was used twice to wash the cell pellets. Later the cells were stained with propidium iodide (PI, 1 mg mL^−1) and incubated for 30 min. Flow cytometric analysis was performed using a FACS scanner and the Becton Dickinson cell search program at 595 nm and the distribution of cells in various cell cycle phases was determined.[69,70]
Through cell cycle analysis, the mechanism of cancer cell death caused by the complexes was evaluated. Anticancer drugs promote growth-inhibitory action in cancer cells by a variety of mechanisms, one of which is dysfunction in the regulation of the cell cycle.[32] For example, cis-platin inhibits DNA transcription in cells by stopping the cell cycle in the S and G2/M phases. PI staining and flow cytometry were used to examine the ability of the complexes to modify the cell cycle (Fig. 19).
Background: In flow cytometry, cells or beads pass a laser one at a time.

Another experiment concerns CT-DNA. Particulars: constant used in eqn (6); no reference given; cited from earlier work.

Turning to `N.N.[Cl][Pt][Cl]` [Cis-platin, cis-platin, reference compound], in the experiment on HeLa cells, the G0/G1 phase stood at 27.12%, the “M Phase” value was 17.52%, the “S Phase” value turned out to be 10.11% and the Sub-G0 phase was 45.25%.
Regarding `CC[n+]1c(-c2ccccc2)c2cc(N)ccc2c2ccc(N)cc21` [EB, ethidium bromide], the “KEtBr, DNA binding constant of EB” value in the experiment on CT-DNA was 1e+07 M⁻¹.
